Measurements: patent US8153385B2, “Target protein and target gene in drug designing and screening method” (Reverse Proteomics Research Institute Co., Ltd., priority 2004, dated 2012)

Biological target: T1, FLJ13397 clone-derived protein (CARP) (Homo sapiens, UniProt Q9H8M7)
T1 construct: A human full-length cDNA clone was expressed as a protein with an N-terminal His tag; His tag (pDEST17 Gateway vector) (N); made in house; host or cells: Escherichia coli BL21star(DE3)pLysS
T1 sequence (Q9H8M7 1-445): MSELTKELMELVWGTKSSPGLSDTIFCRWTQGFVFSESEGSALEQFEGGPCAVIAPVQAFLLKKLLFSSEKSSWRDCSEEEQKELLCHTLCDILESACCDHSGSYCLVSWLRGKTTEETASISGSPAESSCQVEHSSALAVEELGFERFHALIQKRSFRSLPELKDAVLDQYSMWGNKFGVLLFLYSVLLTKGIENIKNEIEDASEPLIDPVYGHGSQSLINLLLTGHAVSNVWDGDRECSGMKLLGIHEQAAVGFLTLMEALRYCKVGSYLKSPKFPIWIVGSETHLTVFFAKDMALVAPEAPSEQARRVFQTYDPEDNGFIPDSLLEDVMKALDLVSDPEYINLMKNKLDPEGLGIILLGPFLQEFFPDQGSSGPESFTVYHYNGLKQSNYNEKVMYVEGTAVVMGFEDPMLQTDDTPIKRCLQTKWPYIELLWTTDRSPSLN
Test: SEC/MS (size exclusion chromatography / mass analysis) interaction analysis between FLJ13397 clone-derived protein and compounds
Format: binding

[1] = compound 1 μM, protein 0 μM (protein-free reference)
[2] = compound 1 μM, protein 23.75 μM
[3] = compound 10 μM, protein 0 μM (protein-free reference)
[4] = compound 10 μM, protein 23.75 μM
[5] = compound 10 μM, protein 47.5 μM
[6] = compound 100 μM, protein 0 μM (protein-free reference)
[7] = compound 100 μM, protein 23.75 μM
[8] = compound 100 μM, protein 47.5 μM
[9] = compound 250 μM, protein 0 μM (protein-free reference)
[10] = compound 250 μM, protein 23.75 μM
[11] = compound 250 μM, protein 47.5 μM

| SMILES | spectrum intensity of the extracted mass range (compound in SEC spin column filtrate) [1] | spectrum intensity of the extracted mass range (compound in SEC spin column filtrate) [2] | spectrum intensity of the extracted mass range (compound in SEC spin column filtrate) (compound 1 μM, protein 47.5 μM) | spectrum intensity of the extracted mass range (compound in SEC spin column filtrate) [3] | spectrum intensity of the extracted mass range (compound in SEC spin column filtrate) [4] | spectrum intensity of the extracted mass range (compound in SEC spin column filtrate) [5] | spectrum intensity of the extracted mass range (compound in SEC spin column filtrate) [6] | spectrum intensity of the extracted mass range (compound in SEC spin column filtrate) [7] | spectrum intensity of the extracted mass range (compound in SEC spin column filtrate) [8] | spectrum intensity of the extracted mass range (compound in SEC spin column filtrate) [9] | spectrum intensity of the extracted mass range (compound in SEC spin column filtrate) [10] | spectrum intensity of the extracted mass range (compound in SEC spin column filtrate) [11] |
| --- | --- | --- | --- | --- | --- | --- | --- | --- | --- | --- | --- | --- |
| c1ccc2[nH]c(-c3cscn3)nc2c1 [Thiabendazole] | 61442947 | 42216896 | 47595391 | 21903023 | 45510612 | 41434122 | 60344905 | 64811390 | 63585895 | 40530147 | 93902905 | 125101370 |
| OC(c1ccccc1)(c1ccccc1)C1CCNCC1 [α,α-Diphenyl-4-piperidinomethanol] | 1354498 | 1217276 | 1961004 | 14109120 | 12131847 | 15743409 | 106849236 | 219345185 | 287013305 | 400374746 | 620399620 | 1037919 |
